The target in one assay is T1, MLLT1 (Homo sapiens, UniProt Q03111).
T1 construct: host or cells: MV4-11
T1 sequence (Q03111 1-559): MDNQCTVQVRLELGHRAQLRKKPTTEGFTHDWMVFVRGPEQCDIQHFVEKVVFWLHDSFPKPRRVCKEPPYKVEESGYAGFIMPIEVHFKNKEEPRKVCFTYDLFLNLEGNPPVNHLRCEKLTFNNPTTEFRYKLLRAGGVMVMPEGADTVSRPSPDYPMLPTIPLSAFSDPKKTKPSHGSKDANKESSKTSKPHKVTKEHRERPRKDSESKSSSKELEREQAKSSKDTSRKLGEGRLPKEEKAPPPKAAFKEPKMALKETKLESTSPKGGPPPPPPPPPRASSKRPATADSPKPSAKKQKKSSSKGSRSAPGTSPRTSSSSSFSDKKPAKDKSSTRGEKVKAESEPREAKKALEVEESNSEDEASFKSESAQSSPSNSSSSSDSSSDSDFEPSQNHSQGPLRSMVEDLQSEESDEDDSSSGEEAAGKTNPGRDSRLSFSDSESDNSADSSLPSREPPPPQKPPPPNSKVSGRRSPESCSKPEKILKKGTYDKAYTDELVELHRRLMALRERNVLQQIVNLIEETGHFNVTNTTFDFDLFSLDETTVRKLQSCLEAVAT
As to the kind of experiment: MLLT1 degradation assay in MV4-11 cells (JESS chemiluminescent detection), three concentrations, 24 h. In kind it is cell-based. Conditions: with respect to DMSO control. The method in brief: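 Read-out is % MLLT1 degradation versus DMSO, from band peak areas on a JESS chemiluminescent system. Cells (MV4-11) were exposed for 24 h at 37° C to three compound levels, 10, 100 and 1000 nM, in 0.1% DMSO.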

The next assay relates to MV4-11 cells. As to the kind of experiment: MV4-11 cellular proliferative assay, Assay Format B (CTG 2.0, 168 h). Conditions: Homo sapiens, 168 h (7 days), CTG 2.0, read-out: IC50 (MV4-11 cellular proliferative assay, Assay format B). Format: cell-based. Summed up: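 Viability read by CellTiter-Glo 2.0 luminescence after 7-day (168 h) compound exposure of MV4-11 cells in IMDM/10% FBS. Ten 3-fold concentrations starting at 1 uM or 100 nM, 0.3% final DMSO; curves normalised to DMSO control, four-parameter fit.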

The term IC50 denotes the point on the concentration scale where inhibition reaches its midpoint.

As for `CN1CCC[C@@H]1c1[nH]c2cc(NC(=O)c3ccc(OCCC4CCN(c5cccc6c5CN(C5CCC(=O)NC5=O)C6=O)CC4)cc3F)ncc2c1Cl` (stereo partly drawn) [Example 190, N-(3-chloro-2-((R)-1-methylpyrrolidin-2-yl)-1H-pyrrolo[3,2-c]pyridin-6-yl)-4-(2-(1-(2-(2,6-dioxopiperidin-3-yl)-1-oxoisoindolin-4-yl)piperidin-4-yl)ethoxy)-2-fluorobenzamide], on MLLT1, the “MLLT1% Degradation @ 0.01 μM” value is reported as “B (Category B: 50% ≤ B < 75% degradation)”, the “MLLT1% Degradation @ 0.1 μM” value is listed as “A (Category A: A ≥ 75% degradation)” and the “MLLT1% Degradation @ 1 μM” value is given as “A (Category A: A ≥ 75% degradation)”. The concentration for half-maximal inhibition (IC50) in the assay on MV4-11 cells is at most 100 nM.

On to `C[C@H]1CN(CC2CCN(c3cccc4c3CN(C3CCC(=O)NC3=O)C4=O)CC2)CCN1c1ccc(C(=O)Nc2cc3[nH]c([C@H]4CCCN4C)cc3cn2)cc1` (stereo partly drawn) [Example 132, 4-((2S)-4-((1-(2-(2,6-dioxopiperidin-3-yl)-1-oxoisoindolin-4-yl)piperidin-4-yl)methyl)-2-methylpiperazin-1-yl)-N-(2-((R)-1-methylpyrrolidin-2-yl)-1H-pyrrolo[3,2-c]pyridin-6-yl)benzamide], for which, on MLLT1, the “MLLT1% Degradation @ 0.01 μM” value is given as “B (Category B: 50% ≤ B < 75% degradation)”, the “MLLT1% Degradation @ 0.1 μM” value is recorded as “A (Category A: A ≥ 75% degradation)” and the “MLLT1% Degradation @ 1 μM” value was “B (Category B: 50% ≤ B < 75% degradation)”. For the same compound, the IC50 in the assay with MV4-11 cells is at most 100 nM.

Consider `CN1CCC[C@@H]1c1cc2cnc(NC(=O)c3ccc(OC4CCN(CC5CCN(c6ccc7c(c6)CN(C6CCC(=O)NC6=O)C7=O)CC5)CC4)cc3)cc2[nH]1` (stereo partly drawn) [Example 143, 4-((1-((1-(2-(2,6-dioxopiperidin-3-yl)-1-oxoisoindolin-5-yl)piperidin-4-yl)methyl)piperidin-4-yl)oxy)-N-(2-((R)-1-methylpyrrolidin-2-yl)-1H-pyrrolo[3,2-c]pyridin-6-yl)benzamide], for which, on MLLT1, the “MLLT1% Degradation @ 0.01 μM” value is “A (Category A: A ≥ 75% degradation)”, the “MLLT1% Degradation @ 0.1 μM” value is listed as “A (Category A: A ≥ 75% degradation)” and the “MLLT1% Degradation @ 1 μM” value is reported as “A (Category A: A ≥ 75% degradation)”. Moreover, the half-maximal inhibitory concentration (IC50) in the assay on MV4-11 cells is at most 100 nM.

As for `CN1CCC[C@@H]1c1[nH]c2cc(NC(=O)c3ccc(CCCCC#Cc4cccc5c4CN(C4CCC(=O)NC4=O)C5=O)cc3F)ncc2c1Cl` (stereo partly drawn) [Example 113, N-(3-chloro-2-((R)-1-methylpyrrolidin-2-yl)-1H-pyrrolo[3,2-c]pyridin-6-yl)-4-(6-(2-(2,6-dioxopiperidin-3-yl)-1-oxoisoindolin-4-yl)hex-5-yn-1-yl)-2-fluorobenzamide], on MLLT1, the “MLLT1% Degradation @ 0.01 μM” value was “A (Category A: A ≥ 75% degradation)”, the “MLLT1% Degradation @ 0.1 μM” value was “A (Category A: A ≥ 75% degradation)” and the “MLLT1% Degradation @ 1 μM” value was “A (Category A: A ≥ 75% degradation)”. Moreover, the concentration for half-maximal inhibition (IC50) in the assay with MV4-11 cells is at most 100 nM.

With `CN1CCC[C@@H]1c1cc2cnc(NC(=O)c3ccc(OC4CCN(CC5CCN(c6cccc7c6CN(C6CCC(=O)NC6=O)C7=O)CC5)CC4)cc3)cc2[nH]1` (mixture of isomers) [Example 121, 4-((1-((1-(2-(2,6-dioxopiperidin-3-yl)-1-oxoisoindolin-4-yl)piperidin-4-yl)methyl)piperidin-4-yl)oxy)-N-(2-((R)-1-methylpyrrolidin-2-yl)-1H-pyrrolo[3,2-c]pyridin-6-yl)benzamide], on MLLT1, the “MLLT1% Degradation @ 0.01 μM” value is on record as “A (Category A: A ≥ 75% degradation)”, the “MLLT1% Degradation @ 0.1 μM” value is “A (Category A: A ≥ 75% degradation)” and the “MLLT1% Degradation @ 1 μM” value is on record as “A (Category A: A ≥ 75% degradation)”. In the assay on MV4-11 cells, the IC50 was at most 100 nM.

With `CN1CCC[C@@H]1c1cc2cnc(NC(=O)c3ccc(OCCN4CCC5(CC4)CCN(c4cccc6c4CN(C4CCC(=O)NC4=O)C6=O)CC5)cc3)cc2[nH]1` (stereo partly drawn) [Example 165, 4-(2-(9-(2-(2,6-dioxopiperidin-3-yl)-1-oxoisoindolin-4-yl)-3,9-diazaspiro[5.5]undecan-3-yl)ethoxy)-N-(2-((R)-1-methylpyrrolidin-2-yl)-1H-pyrrolo[3,2-c]pyridin-6-yl)benzamide], at MLLT1, the “MLLT1% Degradation @ 0.01 μM” value is given as “A (Category A: A ≥ 75% degradation)”, the “MLLT1% Degradation @ 0.1 μM” value was “A (Category A: A ≥ 75% degradation)” and the “MLLT1% Degradation @ 1 μM” value is on record as “A (Category A: A ≥ 75% degradation)”. Further, the IC50 in the assay with MV4-11 cells was at most 100 nM.

`CN1CCC[C@@H]1c1cc2cnc(NC(=O)c3ccc(N4CCN(Cc5ccc(-c6cccc7c6CN(C6CCC(=O)NC6=O)C7=O)cc5)CC4)nc3)cc2[nH]1` (stereo partly drawn) [Example 129, 6-(4-(4-(2-(2,6-dioxopiperidin-3-yl)-1-oxoisoindolin-4-yl)benzyl)piperazin-1-yl)-N-(2-((R)-1-methylpyrrolidin-2-yl)-1H-pyrrolo[3,2-c]pyridin-6-yl)nicotinamide]: on MLLT1, the “MLLT1% Degradation @ 0.01 μM” value is listed as “B (Category B: 50% ≤ B < 75% degradation)”, the “MLLT1% Degradation @ 0.1 μM” value is reported as “B (Category B: 50% ≤ B < 75% degradation)” and the “MLLT1% Degradation @ 1 μM” value is “C (Category C: 25% ≤ C < 50% degradation)”. In addition, the IC50 with MV4-11 cells was at most 100 nM.

Turning to `CN1CCC[C@@H]1c1cc2cnc(NC(=O)c3ccc(-c4cnn(CCCC5CCN(c6cccc7c6C(=O)N(C6CCC(=O)NC6=O)C7=O)CC5)c4)cc3F)cc2[nH]1` (stereo partly drawn) [Example 210, 4-(1-(3-(1-(2-(2,6-dioxopiperidin-3-yl)-1,3-dioxoisoindolin-4-yl)piperidin-4-yl)propyl)-1H-pyrazol-4-yl)-2-fluoro-N-(2-((R)-1-methylpyrrolidin-2-yl)-1H-pyrrolo[3,2-c]pyridin-6-yl)benzamide], on MLLT1, the “MLLT1% Degradation @ 0.01 μM” value is “B (Category B: 50% ≤ B < 75% degradation)”, the “MLLT1% Degradation @ 0.1 μM” value was “A (Category A: A ≥ 75% degradation)” and the “MLLT1% Degradation @ 1 μM” value is “A (Category A: A ≥ 75% degradation)”. Moreover, the IC50 with MV4-11 cells was at most 100 nM.

On to `CN1CCC[C@@H]1c1cc2cnc(NC(=O)c3ccc(OCCC4CCN(c5cccc6c5CN(C5CCC(=O)NC5=O)C6=O)CC4)nc3)cc2[nH]1` (stereo partly drawn) [Example 158, 6-(2-(1-(2-(2,6-dioxopiperidin-3-yl)-1-oxoisoindolin-4-yl)piperidin-4-yl)ethoxy)-N-(2-((R)-1-methylpyrrolidin-2-yl)-1H-pyrrolo[3,2-c]pyridin-6-yl)nicotinamide], for which, at MLLT1, the “MLLT1% Degradation @ 0.01 μM” value was “A (Category A: A ≥ 75% degradation)”, the “MLLT1% Degradation @ 0.1 μM” value is recorded as “A (Category A: A ≥ 75% degradation)” and the “MLLT1% Degradation @ 1 μM” value is “A (Category A: A ≥ 75% degradation)”. Further, in the assay on MV4-11 cells, the IC50 was at most 100 nM.

With `CN1CCC[C@@H]1c1cc2cnc(NC(=O)c3ccc(OCCC4CCN(c5cccc6c5CN(C5CCC(=O)NC5=O)C6=O)CC4)cc3F)cc2[nH]1` (mixture of isomers) [Example 171, 4-(2-(1-(2-(2,6-dioxopiperidin-3-yl)-1-oxoisoindolin-4-yl)piperidin-4-yl)ethoxy)-2-fluoro-N-(2-((R)-1-methylpyrrolidin-2-yl)-1H-pyrrolo[3,2-c]pyridin-6-yl)benzamide], at MLLT1, the “MLLT1% Degradation @ 0.01 μM” value is “A (Category A: A ≥ 75% degradation)”, the “MLLT1% Degradation @ 0.1 μM” value is listed as “A (Category A: A ≥ 75% degradation)” and the “MLLT1% Degradation @ 1 μM” value was “A (Category A: A ≥ 75% degradation)”. The concentration for half-maximal inhibition (IC50) with MV4-11 cells was at most 100 nM.

In the case of `CN1CCC[C@@H]1c1cc2cnc(NC(=O)c3ccc(OCCC4CCN(c5cccc6c5CN(C5CCC(=O)NC5=O)C6=O)CC4)cn3)cc2[nH]1` (stereo partly drawn) [Example 216, 5-(2-(1-(2-(2,6-dioxopiperidin-3-yl)-1-oxoisoindolin-4-yl)piperidin-4-yl)ethoxy)-N-(2-((R)-1-methylpyrrolidin-2-yl)-1H-pyrrolo[3,2-c]pyridin-6-yl)picolinamide], on MLLT1, the “MLLT1% Degradation @ 0.01 μM” value is on record as “A (Category A: A ≥ 75% degradation)”, the “MLLT1% Degradation @ 0.1 μM” value is recorded as “A (Category A: A ≥ 75% degradation)” and the “MLLT1% Degradation @ 1 μM” value was “A (Category A: A ≥ 75% degradation)”. In addition, the IC50 in the assay on MV4-11 cells is at most 100 nM.

Consider `CN1CCC[C@@H]1c1cc2cnc(NC(=O)c3ccc(OCCC4CCN(c5cccc6c5CN(C5CCC(=O)NC5=O)C6=O)CC4)c(F)c3)cc2[nH]1` (stereo partly drawn) [Example 206, 4-(2-(1-(2-(2,6-dioxopiperidin-3-yl)-1-oxoisoindolin-4-yl)piperidin-4-yl)ethoxy)-3-fluoro-N-(2-((R)-1-methylpyrrolidin-2-yl)-1H-pyrrolo[3,2-c]pyridin-6-yl)benzamide], for which, on MLLT1, the “MLLT1% Degradation @ 0.01 μM” value was “A (Category A: A ≥ 75% degradation)”, the “MLLT1% Degradation @ 0.1 μM” value is given as “A (Category A: A ≥ 75% degradation)” and the “MLLT1% Degradation @ 1 μM” value was “A (Category A: A ≥ 75% degradation)”. Further, in the assay with MV4-11 cells, the half-inhibitory concentration (IC50) is at most 100 nM.
